Experimental data as given in PMC12006171, “Marsupial cathelicidins: characterization, antimicrobial activity and evolution in this unique mammalian lineage” (Frontiers in Immunology, 2025).
Converted amounts (≈) assume the structure as drawn. Like-named read-outs stand apart in the source and are kept apart here. Where a SMILES comes first, the peptide text is derived from it.

Experiments:
Format in all cases: cell-based
[1] = tested on: Escherichia coli ATCC 25922; assay: microbe, parasite or virus in culture; settings: ATCC 25922
In short: (§1)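 Each isolate was exposed to twofold peptide dilutions (final 64-0.125μg/mL) in Mueller Hinton broth, optionally supplemented with calcium and magnesium or 10% lysed horse blood. The MIC was taken as the lowest concentration lacking visible growth after 20–24 hours at 35°C.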

[2] = tested on: Escherichia coli clinical isolate - animal; assay: microbe, parasite or virus in culture; settings: clinical isolate - animal
In short: as §1

[3] = tested on: Pseudomonas aeruginosa ATCC 27853; assay: microbe, parasite or virus in culture; settings: ATCC 27853
In short: as §1

[4] = tested on: Pseudomonas aeruginosa clinical isolate - animal; assay: microbe, parasite or virus in culture; settings: clinical isolate - animal
In short: as §1

[5] = tested on: Staphylococcus aureus ATCC 29213; assay: microbe, parasite or virus in culture; settings: ATCC 29213
In short: as §1

[6] = tested on: Candida albicans Clinical isolate - human; assay: microbe, parasite or virus in culture; settings: Clinical isolate - human; for MIC: read-out: MIC C. albicans
In short: (§2)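 MIC defined as lowest peptide level preventing visible growth after 20–24 h at 35°C. Candida tested in RPMI-1640 MOPS; bacteria in Mueller Hinton broth, optionally with 10% lysed horse blood and/or divalent cations. Final peptide range 64-0.125 μg/mL, starting inoculum 5 x 10^5 CFU/mL, per CLSI M07-A/M26A.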

Candida krusei ATCC 6258 = assay: microbe, parasite or virus in culture; settings: ATCC 6258; for MIC: read-out: MIC C. krusei ATCC
In short: as §2

[7] = tested on: Candida parapsilosis ATCC 22019; assay: microbe, parasite or virus in culture; settings: ATCC 22019; for MIC: read-out: MIC C. parapsilosis ATCC
In short: as §2

[8] = tested on: Streptococcus agalactiae ATCC 12386; assay: microbe, parasite or virus in culture; settings: ATCC 12386; read-out: MIC S. agalactiae ATCC
In short: as §2

[9] = tested on: Streptococcus agalactiae Clinical isolate - animal; assay: microbe, parasite or virus in culture; settings: clinical isolate - animal
In short: as §2

[10] = tested on: Streptococcus pneumoniae ATCC 49619; assay: microbe, parasite or virus in culture; settings: ATCC 49619; read-out: MIC S. pneumoniae ATCC
In short: as §2

[11] = tested on: Staphylococcus aureus clinical isolate – animal, methicillin-resistant (MRSA); settings: clinical isolate – animal, methicillin-resistant
Procedure: (§3) Antimicrobial testing of 78 cathelicidin MPs was performed in two phases as outlined in Figure 1 . In phase I, 40 peptides (27 extant and 13 ancestral) were selected for testing based on rank (outlined above) and similarity to published marsupial cathelicidins with known antimicrobial activity ([33], [41]–[43]). These peptides were tested against nine bacteria (Staphylococcus aureus ATCC 29213 and clinical isolate, Escherichia coli ATCC 25922 and clinical isolate, Pseudomonas aeruginosa ATCC 27853 and clinical isolate, Streptococcus agalactiae ATCC 12386 and clinical isolate, Streptococcus pneumoniae ATCC 49619) and three fungi (Candida krusei ATCC 6258, Candida parapsilosis ATCC 22019, and Candida albicans clinical isolate). Details regarding these strains are available in Supplementary Table 4 . The antimicrobial activity of cathelicidins was determined as the minimum inhibitory concentration (MIC), which was the lowest concentration of cathelicidin that prevented visible bacterial or fungal growth, relative to the negative control. […] Minimum bactericidal concentration (MBC) and/or minimum fungicidal concentration (MFC) was conducted to determine microbicidal versus static action. Activity against S. aureus ATCC, E. coli ATCC, and Pseudomonas aeruginosa ATCC 27853 was examined in the presence of divalent cations to determine the impact of inhibitors.
(§4) Antimicrobial activity was determined using a broth microdilution susceptibility assay in 96 well polypropylene plates according to Clinical Laboratory Standards Institute guidelines M07-A and M26A as described previously ([33], [42], [43]). The bacterial and fungal isolates from humans and animals used in this study are outlined in Supplementary Table 4 . Only yeasts were included in the panel of fungi as they have been used in the susceptibility testing of eutherian ([3], [81]–[83]) and other marsupial cathelicidins previously ([33], [42], [43]). Cathelicidin mature peptides were solubilized in DMSO and serially diluted in duplicate from 128-0.25μg/mL in a final volume of 100µL. For bacteria, cathelicidins were diluted in Mueller Hinton Broth (MHB) with or without 10% lysed horse blood, and with (MH II B) or without (MHB) calcium and magnesium cations. For fungi, cathelicidins were diluted in Roswell Park Memorial Institute medium (RPMI)-1640 MOPS. Ampicillin or tetracycline were included as a positive control for Gram-positive and -negative bacteria respectively, while amphotericin B was used for fungi. A media-only negative control and growth control (no cathelicidin) were also included on each plate. Bacteria were sub-cultured on Muller Hinton agar (MHA) or sheep blood agar (BA), and fungi on Sabouraud dextrose agar (SAB), 20–24 hours prior to the test. Colonies were suspended in saline, the concentration adjusted to a 0.5 McFarland standard, and then diluted in media to a concentration of 1.0 x 10^6 cells/mL. Then, 100μL was added to each well of the cathelicidin dilution plate, giving a final inoculum density of 5 x 10^5 CFU/mL and cathelicidin concentration of 64-0.125μg/mL. Colony counts were performed on MHA/BA/SAB to confirm inoculum density. All plates were incubated at 35°C for 20–24 hours, depending on the strain.
(§5) Colonies were counted and compared to the colony count of the starting inoculum.

[12] = tested on: Staphylococcus aureus clinical isolate – animal, penicillin-resistant (PRSA); settings: clinical isolate – animal, penicillin-resistant (PRSA)
Procedure: as §3, §4, §5

[13] = tested on: Staphylococcus aureus clinical isolate - animal; assay: microbe, parasite or virus in culture; settings: clinical isolate - animal; read-out: MIC S. aureus
In short: as §1

[14] = read-out: MIC P. aeruginosa ATCC

CC[C@H](C)[C@H](NC(=O)CNC(=O)[C@H](C)NC(=O)[C@H](CC(C)C)NC(=O)[C@@H](NC(=O)[C@H](CCCNC(=N)N)NC(=O)[C@@H](NC(=O)[C@H](CCCNC(=N)N)NC(=O)[C@@H](N)CCCCN)[C@@H](C)CC)[C@@H](C)CC)C(=O)N[C@@H](Cc1c[nH]c2ccccc12)C(=O)N[C@@H](CC(=O)O)C(=O)N[C@@H](CCCNC(=N)N)C(=O)N[C@@H](CC(C)C)C(=O)N[C@@H](CCCCN)C(=O)N[C@@H](CC(N)=O)C(=O)N[C@@H](CC(C)C)C(=O)NCC(=O)N[C@@H](CC(N)=O)C(=O)N[C@@H](CCCNC(=N)N)C(=O)N[C@H](C(=O)N[C@@H](CCCCN)C(=O)N[C@@H](CC(N)=O)C(=O)N[C@@H](CCCNC(=N)N)C(=O)N[C@@H](CC(C)C)C(=O)N[C@@H](CCCNC(=N)N)C(=O)N[C@@H](CC(=O)O)C(=O)N[C@@H](Cc1ccccc1)C(=O)N[C@@H](Cc1ccccc1)C(=O)N[C@@H](CO)C(=O)O)[C@@H](C)CC [AnstCath5] (H-KRIRILAGIWDRLKNLGNRIKNRLRDFFS-OH)
MBC E. coli ATCC [1]: 8.9 µM (≈ 31.8 µg/mL) | MIC ([1]; read-out: MIC E. coli ATCC): 4.4 µM (≈ 15.7 µg/mL) | MIC ([1]; read-out: MIC in the presence of cations E. coli ATCC): 4.4 µM | MBC E. coli [2]: 17.9 µM (≈ 63.9 µg/mL) | MIC [2]: 8.9 µM (≈ 31.8 µg/mL) | MIC in the presence of cations E. coli [2]: 8.9 µM | MIC [3, 14]: >17.9 µM | MBC P. aeruginosa [4]: 17.9 µM (≈ 63.9 µg/mL) | MIC ([4]; read-out: MIC P. aeruginosa): 8.9 µM (≈ 31.8 µg/mL) | MIC ([4]; read-out: MIC in the presence of cations P. aeruginosa): 17.9 µM | MBC S. aureus ATCC [5]: 8.9 µM (≈ 31.8 µg/mL) | MIC ([5]; read-out: MIC S. aureus ATCC): 4.4 µM (≈ 15.7 µg/mL) | MIC ([5]; read-out: MIC in the presence of cations S. aureus ATCC): 4.4 µM | MFC C. albicans [6]: > 27.1 µM | MIC C. albicans [6]: 27.1 µM (≈ 96.8 µg/mL) | MFC C. krusei ATCC (Candida krusei ATCC 6258): 13.5 µM (≈ 48.2 µg/mL) | MIC C. krusei ATCC (Candida krusei ATCC 6258): 13.5 µM (≈ 48.2 µg/mL) | MFC C. parapsilosis ATCC [7]: > 27.1 µM | MIC [7]: 13.5 µM (≈ 48.2 µg/mL) | MIC [8]: >17.9 µM | MBC S. agalactiae [9]: 8.9 µM (≈ 31.8 µg/mL) | MIC S. agalactiae [9]: 8.9 µM (≈ 31.8 µg/mL) | MIC [10]: >17.9 µM | MBC MRSA [11]: 8.9 µM (≈ 31.8 µg/mL) | MIC MRSA [11]: 4.4 µM (≈ 15.7 µg/mL) | MBC PRSA [12]: 4.4 µM (≈ 15.7 µg/mL) | MIC PRSA [12]: 4.4 µM (≈ 15.7 µg/mL)

CC[C@H](C)[C@H](NC(=O)[C@H](CCCNC(=N)N)NC(=O)[C@@H](N)CCCCN)C(=O)NCC(=O)N[C@@H](Cc1ccccc1)C(=O)NCC(=O)N[C@@H](CC(C)C)C(=O)N[C@@H](Cc1ccccc1)C(=O)N[C@@H](Cc1c[nH]c2ccccc12)C(=O)N[C@@H](CC(=O)O)C(=O)NCC(=O)N[C@@H](CC(C)C)C(=O)N[C@@H](CCCNC(=N)N)C(=O)N[C@@H](CCCCN)C(=O)N[C@@H](CC(C)C)C(=O)NCC(=O)N[C@@H](CC(N)=O)C(=O)N[C@@H](CCCNC(=N)N)C(=O)N[C@H](C(=O)N[C@@H](CCCCN)C(=O)N[C@@H](CC(N)=O)C(=O)N[C@@H](CCCNC(=N)N)C(=O)N[C@H](C(=O)N[C@@H](CCCNC(=N)N)C(=O)N[C@@H](CC(=O)O)C(=O)N[C@@H](Cc1ccccc1)C(=O)N[C@@H](Cc1ccccc1)C(=O)N[C@@H](CO)C(=O)N[C@@H](CCCCN)C(=O)N[C@@H](Cc1ccccc1)C(=O)N[C@@H](CC(C)C)C(=O)NCC(=O)O)[C@@H](C)CC)[C@@H](C)CC [MAP9] (H-KRIGFGLFWDGLRKLGNRIKNRIRDFFSKFLG-OH)
MIC [6]: >16.5 µM | MFC C. krusei ATCC (Candida krusei ATCC 6258): 16.5 µM (≈ 63.6 µg/mL) | MIC (Candida krusei ATCC 6258): 8.2 µM (≈ 31.6 µg/mL) | MFC C. parapsilosis ATCC [7]: > 16.5 µM | MIC C. parapsilosis ATCC [7]: 16.5 µM (≈ 63.6 µg/mL)

CC[C@H](C)[C@H](NC(=O)[C@H](CCCCN)NC(=O)[C@H](Cc1ccccc1)NC(=O)[C@H](CC(N)=O)NC(=O)[C@H](CCCCN)NC(=O)[C@H](CC(C)C)NC(=O)[C@H](CCCNC(=N)N)NC(=O)[C@H](CCCCN)NC(=O)[C@H](CCCCN)NC(=O)[C@@H](NC(=O)[C@H](CCC(=O)O)NC(=O)[C@H](CC(=O)O)NC(=O)CNC(=O)[C@H](Cc1ccccc1)NC(=O)[C@H](CCCCN)NC(=O)[C@H](CCCCN)NC(=O)[C@H](CC(C)C)NC(=O)[C@H](CCCCN)NC(=O)[C@H](CCCCN)NC(=O)[C@H](CCCCN)NC(=O)[C@H](CC(C)C)NC(=O)[C@H](Cc1c[nH]c2ccccc12)NC(=O)[C@H](CCCNC(=N)N)NC(=O)[C@H](Cc1ccccc1)NC(=O)CNC(=O)CNC(=O)[C@H](CCCNC(=N)N)NC(=O)[C@@H](N)CCCCN)[C@@H](C)CC)C(=O)NCC(=O)N[C@@H](Cc1ccccc1)C(=O)N[C@@H](CC(C)C)C(=O)N[C@H](C(=O)N1CCC[C@H]1C(=O)N[C@@H](CC(C)C)C(=O)O)[C@@H](C)CC [MAP13] (H-KRGGFRWLKKKLKKFGDEIKKRLKNFKIGFLIPL-OH)
MBC E. coli ATCC [1]: 7.7 (7.7)^7.7 µM | MIC E. coli ATCC [1]: 7.7 (7.7)^7.7 µM | MIC in the presence of cations E. coli ATCC [1]: 7.7 (7.7)^7.7 µM | MBC E. coli [2]: 7.7 (7.7)^7.7 µM | MIC E. coli [2]: 7.7 (7.7)^7.7 µM | MIC in the presence of cations E. coli [2]: 7.7 (7.7)^7.7 µM | MBC P. aeruginosa ATCC [3]: 15.4 µM (≈ 63.6 µg/mL) | MIC [3, 14]: 7.7 µM (≈ 31.8 µg/mL) | MIC ([3]; read-out: MIC in the presence of cations P. aeruginosa ATCC): 15.4 µM | MBC P. aeruginosa [4]: 15.4 (15.4)^15.4 µM | MIC P. aeruginosa [4]: 15.4 (15.4)^15.4 µM | MIC in the presence of cations P. aeruginosa [4]: 15.4 (15.4)^15.4 µM | MIC ([5]; read-out: MIC S. aureus ATCC): >15.4 µM | MIC [13]: >15.4 µM | MIC [6]: >15.4 µM | MIC (Candida krusei ATCC 6258): >15.4 µM | MFC C. parapsilosis ATCC [7]: > 15.4 µM | MIC [7]: 7.7 µM (≈ 31.8 µg/mL) | MIC [8]: >15.4 µM | MIC ([9]; read-out: MIC S. agalactiae): >15.4 µM | MIC [10]: >15.4 µM
